Reference: patent US8710231B2, “Inhibitor of casein kinase 1delta and casein kinase 1E” (Pharmadesign, Inc., priority 2010, dated 2014)

How the values were obtained:
p38α = p38α (Homo sapiens, UniProt Q16539); conditions: cited from earlier work
rats [1] = conditions: subcutaneous administration; cited from earlier work
rats [2] = assay: Rat circadian rhythm disorder model (momentum and non-REM sleep under LD conditions); assay type: in vivo; conditions: for momentum / non-REM sleep amount: 60 mg/kg intraperitoneal immediately before dark period, vs untreated rats
Method: Specifically, rats were acclimatized for one or more weeks under light/dark (LD) conditions consisting of a light period for 12 hours and a dark period for 12 hours. Immediately before the beginning of the dark period, the compound represented by the formula (11) was mixed with a solubilizing agent, and the mixture was intraperitoneally administered to each rat at a dose of 60 mg/kg. […] On the other hand, with regard to a compound in which as halogen group or the like had not been introduced into the thiophene ring of the compound represented by the formula (2) ((4-((6-methoxy-3-pyridinyl)methylene)-2-(2-thienyl)-5(4H)-oxazolone)), the same test as described above was carried out.

[3] = molecular target: T1, human recombinant casein kinase 1δ (Homo sapiens, UniProt P48730); assay: Casein kinase 1δ inhibition, Z'-LYTE Ser/Thr 11 Peptide assay; assay type: biochemical; conditions: 0.3 μg/ml compound; for inhibition at 0.3 µg/mL: 20 μM ATP, 3.0 or 1.0 μg/ml enzyme, formula (2) high-purity from Scheme 2, read-out: Casein kinase 1δ inhibition percentage
T1 construct: purchased INVITROGEN PV3665
T1 sequence (P48730 whole entry): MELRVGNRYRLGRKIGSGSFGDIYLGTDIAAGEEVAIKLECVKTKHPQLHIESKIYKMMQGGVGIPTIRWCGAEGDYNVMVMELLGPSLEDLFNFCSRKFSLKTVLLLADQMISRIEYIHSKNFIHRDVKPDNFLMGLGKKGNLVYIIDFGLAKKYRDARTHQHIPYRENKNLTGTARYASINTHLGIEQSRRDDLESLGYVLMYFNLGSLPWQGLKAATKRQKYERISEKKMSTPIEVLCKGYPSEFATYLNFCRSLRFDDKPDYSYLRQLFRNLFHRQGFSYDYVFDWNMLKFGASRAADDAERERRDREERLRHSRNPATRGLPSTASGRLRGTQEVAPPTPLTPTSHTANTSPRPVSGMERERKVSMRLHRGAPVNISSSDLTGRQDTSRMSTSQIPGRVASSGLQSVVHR
Method: (§1) The activity of the present compound to inhibit casein kinase 1δ and casein kinase 1ε was measured using human recombinant casein kinase 1δ (INVITROGEN; Cat No. PV3665) or human recombinant casein kinase 1ε (INVITROGEN; Cat No. PV3500) as an enzyme source, and also using Z′-LYTE Ser/Thr 11 Peptide (INVITROGEN; Cat No. PV3671) as a phosphorylation substrate. The composition (final concentration) applied during each inhibitory activity measurement assay is as follows.
Assay for Casein Kinase 1δ
3.0 μg/ml or 1.0 μg/ml casein kinase 1δ, 0.3 μg/ml the present compound, 1.0 μM Peptide, 20 μM ATP, 50 mM HEPES (pH 7.4), 10 mM MgCl2, 0.01% Brij-35, and 0.5% DMSO
(§2) The present compound was previously allowed to react with the enzyme at room temperature, for 15 minutes. Two hours later, the remaining phosphorylation activity was measured using Z′-LYTE Kinase Assay Kit-Ser/Thr 11 Peptide (INVITROGEN; Cat No. PV3670).
(§3) The inhibition percentage of the present compound against the phosphotylation activity of each of casein kinase 1δ and casein kinase 1ε to which the present compound had not been added, was calculated.

[4] = molecular target: Dual specificity tyrosine-phosphorylation-regulated kinase 1A (DYRK1A) (Homo sapiens, UniProt Q13627); assay: DYRK1A inhibition, Profiler Pro kit method; assay type: biochemical; conditions: compound 1 μM; read-out: DYRK1A enzyme activity inhibition percentage
Description: As with casein kinase 1δ, this DYRK1A has been known as a candidate kinase for phosphorylating tau proteins, and also as a kinase for controlling circadian rhythm.

[5] = molecular target: T2, human recombinant casein kinase 1δ (substrate human recombinant tau) (Homo sapiens, UniProt P48730); assay: Casein kinase 1δ inhibition with tau as substrate (Phos-tag Western blotting); assay type: biochemical; conditions: compound 25 μM to 1 μM, 200 μM ATP, vs reaction solution without compound
T2 construct: purchased Carna Biosciences 03-103
T2 sequence (P48730 whole entry): as above
Method: The activity of the present compound to inhibit casein kinase 1δ having tau as a substrate can be examined using human recombinant casein kinase 1δ (Carna Biosciences; Cat No. 03-103) as an enzyme source and also using human recombinant tau (Sigma-Aldrich; Cat No. T0576) as a phosphorylation substrate. The composition (final concentration) applied during the inhibitory activity measurement assay is as follows.
25 μg/ml casein kinase 1δ, 10 μg/ml tau, the present compound (25 μM to 1 μM), 200 μM ATP, 50 mM HEPES (pH7.4), 10 mM MgCl2, 0.01% Brij-35, 200 μM Na3VO4, and 0.25% DMSO
The present compound has previously been allowed to react with the enzyme at room temperature for 15 minutes, and tau is then added to the reaction product. Thereafter, a phosphorylation reaction is carried out for 2 hours. After completion of the phosphorylation reaction, the reaction solution is subjected to Western blotting, so that the phosphorylation of the human recombinant tau transcribed on a PVDF membrane is detected using Phos-tag (NARD Institute, Ltd.; Cat No. BTL-104) according to a chemiluminescence method (ECL Plus; GE Healthcare; Cat No. RPN2132). The PVDF membrane after detection of the phosphorylation reaction is deprobed in accordance with the protocols of the Phos-tag, and thereafter, a total tau protein content can be detected by an antibody reaction. […]

[6] = molecular target: T3, human recombinant casein kinase 1ε (Homo sapiens, UniProt P49674); assay: Casein kinase 1ε inhibition, Z'-LYTE Ser/Thr 11 Peptide assay; assay type: biochemical; conditions: 0.3 μg/ml compound; for inhibition at 0.3 µg/mL: 20 μM ATP, 0.5 μg/ml enzyme, formula (2) high-purity from Scheme 2, read-out: Casein kinase1ε inhibition percentage
T3 construct: purchased INVITROGEN PV3500
T3 sequence (P49674 whole entry): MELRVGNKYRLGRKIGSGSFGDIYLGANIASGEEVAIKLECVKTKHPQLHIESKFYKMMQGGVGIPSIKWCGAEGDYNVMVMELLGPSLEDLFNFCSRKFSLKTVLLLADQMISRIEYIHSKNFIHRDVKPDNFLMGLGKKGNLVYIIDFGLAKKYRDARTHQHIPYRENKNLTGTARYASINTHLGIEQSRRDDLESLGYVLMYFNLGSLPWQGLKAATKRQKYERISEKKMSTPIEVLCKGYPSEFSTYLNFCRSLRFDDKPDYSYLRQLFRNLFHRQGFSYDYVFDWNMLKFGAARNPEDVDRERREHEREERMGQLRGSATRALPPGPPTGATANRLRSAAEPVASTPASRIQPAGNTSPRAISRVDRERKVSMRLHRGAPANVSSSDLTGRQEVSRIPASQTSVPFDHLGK
Method: as §1
Assay for Casein Kinase 1ε
0.5 μg/ml casein kinase 1ε, 0.3 μg/ml the present compound, 1.0 μM Peptide, 20 μM ATP, 50 mM HEPES (pH 7.4), 10 mM MgCl2, 0.01% Brij-35, and 0.5% DMSO
as §2, §3

[7] = Solubility of each compound in a DMSO solution; assay type: physicochemical
Description: In terms of the solubility of each compound in a DMSO solution, a comparison was made among the compound represented by the Formula (2), the compounds represented by the formulae (11) and (14), and a compound in which a halogen atom or the like has not been introduced into the thiophene ring of the compound of the formula (2) (4-((6-methoxy-3-pyridinyl)methylene)-2-(2-thienyl)-5(4H)-oxazolone). The compound represented by the formula (2) and the compounds represented by the formulae (11) and (14) were easily dissolved in final concentrations of 35 mM, 10 mM and 20 mM, respectively, in the DMSO solution. On the other hand, the compound in which a halogen atom or the like has not been introduced into the thiophene ring of the compound of the formula (2) was dissolved in a final concentration of 10 mM in the DMSO solution by being intensively stirred.

[8] = tested on: various types of kinases (MAPKAPK2, AurA, PKCζ, RSK1, PRAK, Erk1, PKD2, CHK1, ABL, FYN, LYN, CHK2, MET, LCK, SRC, GSK3β, Erk2, PKA, AKT2, INSR, p38α, AKT1 …); assay: Inhibitory specificity to various types of kinases, Profiler Pro kit; assay type: biochemical; conditions: final concentration of 10 μM, 1 μM or 0.1 μM; reacted 15 minutes
Method: The inhibitory specificity of the casein kinase 1δ to and casein kinase 1ε inhibiting compounds to various types of kinases can be examined using Profiler Pro kit (manufactured by Caliper Life Sciences) in accordance with the method described in an instruction manual included therewith. The compounds represented by the formulae (2), (11) and (14) were each allowed to react with various types of kinases for 15 minutes, resulting in the final concentration of 10 μM, 1 μM or 0.1 μM. After completion of the reaction, enzyme activity was examined.

[9] = tested on: human pancreatic cancer cell line; conditions: added in vitro; cited from earlier work
[10] = tested on: pancreatic cancer cell line transplanted into the subcutis of a mouse; conditions: subcutaneous transplant; cited from earlier work
[11] = tested on: N2A cells (N2A-APP695 cells); conditions: N2A-APP695 cells excessively expressing constitutively active casein kinase 1ε; cited from earlier work
[12] = low-purity compound obtained by Scheme 1

Sequence of p38α (Q16539 whole entry): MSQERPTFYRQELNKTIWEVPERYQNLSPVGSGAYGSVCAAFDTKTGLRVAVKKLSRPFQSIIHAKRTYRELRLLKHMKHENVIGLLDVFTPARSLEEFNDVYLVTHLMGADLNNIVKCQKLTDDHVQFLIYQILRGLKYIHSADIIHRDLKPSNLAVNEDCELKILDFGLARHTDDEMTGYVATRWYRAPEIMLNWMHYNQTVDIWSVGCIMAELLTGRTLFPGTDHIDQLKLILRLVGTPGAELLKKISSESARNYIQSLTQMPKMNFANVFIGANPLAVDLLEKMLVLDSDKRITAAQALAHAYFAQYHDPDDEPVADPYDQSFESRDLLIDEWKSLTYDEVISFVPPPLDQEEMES

inhibition at 0.3 µg/mL [3] [%]	inhibition at 1 µM [4] [%]	inhibition of phosphorylation of tau by casein kinase 1δ (phosphorylation rate of tau) [5]	inhibition at 0.3 µg/mL [6] [%]	final concentration dissolved in the DMSO solution ([7]; easily dissolved) [mM]	SMILES	momentum (rats [2])	non-REM sleep amount (rats [2])	inhibitory activity against various types of kinases causing concerns about side effects [8]	further results
–	–	–	–	–	Nc1nccc(-c2c(-c3ccc(F)cc3)ncn2C2CCCCC2)n1 [PF-670462, 4-[3-cyclohexyl-5-(4-fluoro-phenyl)-3H-imidazol-4-yl]-pyrimidin-2-ylamine]	–	–	–	inhibitory action against p38α (p38α): exhibit inhibitory action; phase of circadian rhythm (rats [1]): significantly delayed
77.9	78	significant inhibition	94.8	10	COc1ccc(/C=C2\N=C(c3ccc(Cl)s3)OC2=O)cn1 [Formula (11), 4-((6-Methoxy-3-pyridinyl)methylene)-2-(5-chloro-2-thienyl)-5(4H)-oxazolone]	statistically significant reduction	increase	did not have significant inhibitory activity	medicinal effect compared with the compound without halogen on the thiophene ring (rats [2]; same test): significantly higher
–	–	–	–	–	COc1ccc(C=C2N=C(c3cccs3)OC2=O)cn1 [4-((6-methoxy-3-pyridinyl)methylene)-2-(2-thienyl)-5(4H)-oxazolone, reference compound]	significant reduction	increase	–	final concentration dissolved in the DMSO solution ([7]; dissolved by being intensively stirred): 10 mM
83	65	significant inhibition	97.7	35	COc1ccc(/C=C2\N=C(c3ccc(F)s3)OC2=O)cn1 [Formula (2), 4-((6-Methoxy-3-pyridinyl)methylene)-2-(5-fluoro-2-thienyl)-5(4H)-oxazolone]	–	–	did not have significant inhibitory activity	inhibitory activity against casein kinase 1δ [3, 12]: significant inhibitory activity; inhibitory activity against casein kinase 1ε [6, 12]: significant inhibitory activity
–	–	–	–	–	COc1cc(OC)c(C=C2C(O)=Nc3ccccc32)c(OC)c1 [IC261]	–	–	–	cell growth [9]: suppression of the cell growth; growth of tumor cells [10]: significant effect of suppressing the growth of tumor cells; amounts of Aβ40 and Aβ42 [11]: decreased
77.8	85	–	95	20	COc1ccc(/C=C2\N=C(c3ccc(Br)s3)OC2=O)cn1 [Formula (14)]	–	–	did not have significant inhibitory activity	–
